# Source: patent publication US20230339968A1, “KRAS Gl2C INHIBITORS” (Eli Lilly and Company, priority 2019, published 2023)
# Read-outs that look alike come from different tables or passages of the source.
# What was measured:
# [1] = tested on: LU99 (lung); experiment: CellTiterGlo Cell Proliferation Assay (2D), LU99; type: cell-based; conditions: Homo sapiens, Lu-99, 96 hours
# Procedure: (§1) The purpose of this assay is to evaluate the growth of KRas G12C mutant tumor lines following treatment with a test compound. A panel of tumor cell lines harboring KRas G12C or other KRas mutations are collected (Table 25). All cell lines are from ATCC or other sources indicated.
# (§2) Typically cells are cultured in RPMI1640 or Dulbecco's modified Eagle's medium (DMEM, GIBCO) supplemented with 10% FBS (GIBCO, Invitrogen). […] The cells are treated with compound for 96 hours, and then are analyzed for viability using the CellTiterGlo® Luminescent Cell Viability Assay® (Promega #G7572 for 2D) according to manufacturer's instructions and an EnVision™ plate reader. Nonlinear regression and sigmoidal dose-response curves are used to calculate the half maximal inhibitory concentration (IC50) with GraphPad Prism 4® software.
# [2] = tested on: MiaPaca-2 (pancr); experiment: CellTiterGlo Cell Proliferation Assay (2D), MiaPaca-2; type: cell-based; conditions: Homo sapiens, MIA PaCa-2, 96 hours
# Procedure: as §1, §2
# [3] = tested on: H2122 (lung); experiment: CellTiterGlo Cell Proliferation Assay (2D), H2122; type: cell-based; conditions: Homo sapiens, NCI-H2122, 96 hours
# Procedure: as §1, §2
# [4] = tested on: HCC44 (lung); experiment: CellTiterGlo Cell Proliferation Assay (2D), HCC44; type: cell-based; conditions: Homo sapiens, 96 hours
# Procedure: as §1, §2
# [5] = tested on: pERK; experiment: In vivo pharmacodynamic effect, pERK Meso Scale Discovery ELISA of tumor lysates, lung cancer H358 xenograft model; set-up: species or system mouse; conditions: for inhibition at 30 mg/kg: read-out: % inhibition of pERK
# Procedure: The purpose of these assays is to evaluate in vivo target inhibition of an orally administered test compound. Human lung cancer H358 cells, or pancreatic cancer MiaPaca-2 cells, are implanted into nude mice xenograft tumor models. H358 or MiaPaca-2 cells (10×106 in a 1:1 Matrigel® mix, 0.2 mL total volume) are implanted by subcutaneous injection in hind leg of nude female mice (Harlan Laboratories). […] Treatment is initiated with oral administration (gavage) of a test compound or vehicle (20% Captisol®, 25 mM phosphate, pH 2.0 in 0.2 mL) when the tumor size reaches approximately 300 mg.
# For in vivo target inhibition and PD analysis, tumors are ground by mortar and pestle on dry ice and tumor fragments are added to 800 μL of lysis buffer containing 1% Triton™ X-100, 25 mM Tris pH7.5, 150 mM sodium chloride, 1 mM EDTA, and 1 mM EGTA with Halt protease and phosphatase inhibitor cocktail (Thermo Scientific, cat. no. 1861281) in lysing matrix D tubes (MP Biomedical®, cat. no. 6913-500) with one additional large bead (MP Biomedical® ¼″ ceramic sphere bead cat. no. 6540-412) per tube. Tumor fragments are homogenized in a Thermo Bio101® fast prep (FP120) at setting 4 for […] while cold for a total of 2 times. Lysates are spun at 14,000 rpm for 10 minutes at 4° C. to clarify. Protein estimation is done on the lysate supernatant using a BioRad Dc® protein assay and lysates are diluted in complete lysis/binding buffer from the Ras GTPase Chemi ELISA Kit® (Active Motif, cat. no. 52097). The active KRas ELISA is performed as follows: glutathione-coated ELISA wells are incubated with diluted RAF1-GST in complete lysis/binding buffer for 1 hour at 4° C. with gentle agitation. Wells are washed 3 times with wash buffer and 100 μg of lysates are added to each well and incubated at ambient temperature for 1 hour with mild agitation. The wells are washed an additional 3 times, then primary antibody, diluted in antibody binding buffer, is added to each well. The plates are incubated for 1 hour. The wells are washed 3 more times before adding HRP-conjugated secondary antibody, diluted in antibody binding buffer, to each well. The plates are incubated at ambient temperature for 1 hour. ELISA wells are washed 4 times, chemiluminescent reagent is added and then luminescence is read. For pERK Meso Scale Discovery ELISA, 25 μg of protein containing 0.1% SDS is used; Meso Scale Discovery Whole Cell Lysate Kit for pERK is provided by Meso Scale Discovery.
# The purpose of this assay is to evaluate the dose dependent in vivo target inhibition and pharmacodynamic effects in a lung cancer model. The test compound is dosed in lung cancer H358 mouse xenograft model at a dose range from 12.5 to 100 mg/kg. The tumor samples are collected 8 hours post a single dose. The tumor lysates are prepared and the inhibition of pERKand active KRas is measured as described above.
# The purpose of this assay is to evaluate the time dependent in vivo target inhibition and pharmacodynamic effects in a lung cancer model. […] After a single dose, the tumor samples are harvested at 2, 4, 8, 12 and 24 hour post doing. The tumor lysates are prepared and the inhibition of pERK and active KRas is measured as described above.
# [6] = tested on: H1792 (lung); experiment: CellTiterGlo Cell Proliferation Assay (2D), H1792; type: cell-based; conditions: Homo sapiens, NCI-H1792, 96 hours
# Procedure: as §1, §2
# [7] = tested on: SW756 (cervix); experiment: CellTiterGlo Cell Proliferation Assay (2D), SW756; type: cell-based; conditions: Homo sapiens, 96 hours
# Procedure: as §1, §2
# [8] = tested on: UM-UC-3 (bladder); experiment: CellTiterGlo Cell Proliferation Assay (2D), UM-UC-3; type: cell-based; conditions: Homo sapiens, UMUC3, 96 hours
# Procedure: as §1, §2
# [9] = tested on: H2030 (lung); experiment: CellTiterGlo Cell Proliferation Assay (2D), H2030; type: cell-based; conditions: Homo sapiens, NCI-H2030, 96 hours
# Procedure: as §1, §2
# [10] = tested on: A549 (lung); experiment: CellTiterGlo Cell Proliferation Assay (2D), A549 (KRas G12S); type: cell-based; conditions: Homo sapiens; for inhibition at 10 µM: read-out: % inh. @ 10 μM
# Procedure: as §1, §2
# [11] = tested on: KYSE-410 (esoph); experiment: CellTiterGlo Cell Proliferation Assay (2D), KYSE-410; type: cell-based; conditions: Homo sapiens, 96 hours
# Procedure: as §1, §2
# [12] = tested on: Calu-1 (lung); experiment: CellTiterGlo Cell Proliferation Assay (2D), Calu-1; type: cell-based; conditions: Homo sapiens, 96 hours
# Procedure: as §1, §2
# [13] = tested on: SW1573 (lung); experiment: CellTiterGlo Cell Proliferation Assay (2D), SW1573; type: cell-based; conditions: Homo sapiens, 96 hours
# Procedure: as §1, §2
# [14] = tested on: SW1463 (colon); experiment: CellTiterGlo Cell Proliferation Assay (2D), SW1463; type: cell-based; conditions: Homo sapiens, 96 hours
# Procedure: as §1, §2
# [15] = Mus musculus, NCI-H358, po, 8 h, read-out: % Inhibition of pERK
# [16] = A549 (lung, KRas G12S), 2D, 96 hours
# [17] = A549 (lung, KRas G12S), 2D, 96 hours, 10 μM
Compound,IC50 [1] [µM],inhibition at 10 µM [1] [%],IC50 [2] [µM],inhibition at 10 µM [2] [%],IC50 [3] [µM],inhibition at 10 µM [3] [%],IC50 [4] [µM],inhibition at 10 µM [4] [%],IC50 [6] [µM],inhibition at 10 µM [6] [%],IC50 [7] [µM],inhibition at 10 µM [7] [%],IC50 [8] [µM],inhibition at 10 µM [8] [%],IC50 [9] [µM],inhibition at 10 µM [9] [%],"IC50 [10, 16] [µM]",IC50 [11] [µM],inhibition at 10 µM [11] [%],IC50 [12] [µM],other results
"C=CC(=O)N1CCN2C(=O)c3cc(F)c(-c4ccc(F)c5sc(N)c(C#N)c45)c(Cl)c3OCC[C@H]2C1 [Example 35, 4-[(13aS)-10-Chloro-8-fluoro-6-oxo-2-prop-2-enoyl-1,3,4,12,13,13a-hexahydropyrazino[2,1-d][1,5]benzoxazocin-9-yl]-2-amino-7-fluoro-benzothiophene-3-carbonitrile]",0.173,96.6,0.011,85.8,0.9,79.7,2.23,64.3,1.41,81.7,1.55,56.7,1.09,80.4,> 10,40.3,> 10,7.97,68.3,0.48,"inhibition at 30 mg/kg ([5]; Mus musculus, NCI-H358, 2 h): 67.9%; inhibition at 30 mg/kg ([5]; Mus musculus, NCI-H358, 4 h): 73.2%; inhibition at 30 mg/kg ([5]; Mus musculus, NCI-H358, 8 h): 82.6%; inhibition at 30 mg/kg ([5]; Mus musculus, NCI-H358, 12 h): 71.1%; inhibition at 30 mg/kg ([5]; Mus musculus, NCI-H358, 24 h): 65.2%; inhibition at 12.5 mg/kg [5, 15]: 82.2%; inhibition at 25 mg/kg [5, 15]: 85.3%; inhibition at 50 mg/kg [5, 15]: 90.6%; inhibition at 100 mg/kg [5, 15]: 88.9%; inhibition at 10 µM ([10]; A549, 96 h): 31.6%; inhibition at 10 µM [12]: 56%; IC50 [13]: > 10 µM; inhibition at 10 µM [13]: 44.7%; IC50 [14]: 0.005 µM; inhibition at 10 µM [14]: 94.3%"
"C=CC(=O)N1CCN2C(=O)c3cc(F)c(-c4ccc(F)c5sc(N)c(C#N)c45)c(Cl)c3OC[C@H]2C1 [Example 36, 4-[(4aR)-7-Chloro-9-fluoro-11-oxo-3-prop-2-enoyl-2,4,4a,5-tetrahydro-1H-pyrazino[2,1-c][1,4]benzoxazepine-8-yl]-2-amino-7-fluoro-benzothiophene-3-carbonitrile]",0.349,99.1,0.081,79.6,1.36,92.8,2.84,80.6,2.03,97.4,2.52,58.1,1.86,91.6,> 10,55.8,9.5,> 10,43.1,2.93,"% inhibition of pERK ([5]; H358 model, single dose 30 mg/kg, 8 h, 30 mg/kg): 86.9%; inhibition at 30 mg/kg ([5]; Mus musculus, NCI-H358, 2 h, H358 model, single dose 30 mg/kg, 2 h): 79.7%; inhibition at 30 mg/kg ([5]; Mus musculus, NCI-H358, 4 h, H358 model, single dose 30 mg/kg, 4 h): 84.2%; inhibition at 30 mg/kg ([5]; Mus musculus, NCI-H358, 8 h, H358 model, single dose 30 mg/kg, 8 h): 82.6%; inhibition at 30 mg/kg ([5]; Mus musculus, NCI-H358, 24 h, H358 model, single dose 30 mg/kg, 24 h): 48.8%; inhibition at 10 µM [10, 17]: 62.1%; inhibition at 10 µM [12]: 77.4%; IC50 [13]: 9.35 µM; inhibition at 10 µM [13]: 54.3%; IC50 [14]: 0.014 µM; inhibition at 10 µM [14]: 82.7%"
"C=CC(=O)N1CCN2C(=O)c3cc(Cl)c(-c4ccc(F)c5sc(N)nc45)c(Cl)c3OCC[C@H]2C1 (atropisomer, axis not shown) [Example 1, (13aS)-9-(2-Amino-7-fluoro-1,3-benzothiazol-4-yl)-8,10-dichloro-2-prop-2-enoyl-1,3,4,12,13,13a-hexahydropyrazino[2,1-d][1,5]benzoxazocin-6-one]",0.303,89.9,0.018,77.2,1.17,80.4,> 10,46.4,3.01,63.6,1.63,51.9,0.73,54.3,> 10,32.9,> 10,5.84,64.6,> 10,"inhibition at 10 µM [10, 17]: 19.1%; inhibition at 10 µM [12]: 45.4%; IC50 [13]: > 10 µM; inhibition at 10 µM [13]: 35%; IC50 [14]: 0.006 µM; inhibition at 10 µM [14]: 95.3%"
